target: T1, chimeric human H3 receptor (Homo sapiens, UniProt Q9Y5N1); assay: Chimeric human H3 receptor GTP binding assay (agonist-stimulated GTP-gamma35S binding, Example 7); assay type: biochemical; details: Table II; "*" = Ki in assay of Example 7 less than 1 micromolar
T1 construct: made in house; host or cells: Sf9 insect cells (baculovirus); P2 membrane preparation
How it was run: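 Sf9 membranes co-expressing chimeric human H3 receptor and heterotrimeric G-protein, 35 μg/tube, in pH 7.4 Tris buffer with 10 μM GDP. Test compounds (10^−10–10^−6 M) competed against 1 μM histamine, […] GTP-gamma35S, 60 min at room temperature. Filter-bound radioactivity counted; IC50 converted to Ki by Cheng-Prusoff. Agonism/inverse agonism tested without histamine (EC50).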

T1 sequence (Q9Y5N1 with tags, fused parts or gaps): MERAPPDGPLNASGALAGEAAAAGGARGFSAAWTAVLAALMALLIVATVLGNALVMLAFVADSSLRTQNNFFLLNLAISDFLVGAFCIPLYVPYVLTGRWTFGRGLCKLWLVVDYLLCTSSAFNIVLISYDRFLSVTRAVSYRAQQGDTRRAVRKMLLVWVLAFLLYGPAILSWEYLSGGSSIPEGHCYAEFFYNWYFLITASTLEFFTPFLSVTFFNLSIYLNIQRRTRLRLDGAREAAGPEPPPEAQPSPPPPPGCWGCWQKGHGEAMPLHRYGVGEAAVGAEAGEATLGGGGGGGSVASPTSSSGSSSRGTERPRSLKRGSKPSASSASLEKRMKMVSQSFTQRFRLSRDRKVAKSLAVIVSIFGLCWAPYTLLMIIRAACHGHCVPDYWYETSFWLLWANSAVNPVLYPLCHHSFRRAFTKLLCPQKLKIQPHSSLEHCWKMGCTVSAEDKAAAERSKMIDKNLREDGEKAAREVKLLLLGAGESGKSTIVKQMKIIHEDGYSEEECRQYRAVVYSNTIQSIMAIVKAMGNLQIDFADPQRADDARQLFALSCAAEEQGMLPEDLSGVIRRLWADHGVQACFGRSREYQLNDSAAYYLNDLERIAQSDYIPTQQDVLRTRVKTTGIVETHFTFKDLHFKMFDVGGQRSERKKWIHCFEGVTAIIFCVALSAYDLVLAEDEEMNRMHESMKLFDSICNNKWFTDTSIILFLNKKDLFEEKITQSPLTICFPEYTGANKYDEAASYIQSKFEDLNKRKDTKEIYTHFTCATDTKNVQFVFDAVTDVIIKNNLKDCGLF

Ki, < 1 µM:
O=C(CN1CCc2cc(-c3cncs3)ccc2C1)N1CCN(C2CCC2)CC1 [Compound 132, 2-[2-(4-cyclobutylpiperazin-1-yl)-2-oxoethyl]-6-(1,3-thiazol-5-yl)-1,2,3,4-tetrahydroisoquinoline]
O=C(CN1CCc2[nH]c(=O)ccc2C1)N1CCN(C2CCCC2)CC1 [Compound 133, 6-[2-(4-cyclopentylpiperazin-1-yl)-2-oxoethyl]-5,6,7,8-tetrahydro-1,6-naphthyridin-2(1H)-one]
O=C(CN1CCc2[nH]c(=O)ccc2C1)N1CCN(C2CCC2)CC1 [Compound 134, 6-[2-(4-cyclobutylpiperazin-1-yl)-2-oxoethyl]-5,6,7,8-tetrahydro-1,6-naphthyridin-2(1H)-one]
CC(C)N1CCN(C(=O)CN2CCc3[nH]c(=O)ccc3C2)CC1 [Compound 135, 6-[2-(4-isopropylpiperazin-1-yl)-2-oxoethyl]-5,6,7,8-tetrahydro-1,6-naphthyridin-2(1H)-one]
O=C(CN1CCc2[nH]c(=O)ccc2C1)N1CCN(C2CCCCC2)CC1 [Compound 136, 6-[2-(4-cyclohexylpiperazin-1-yl)-2-oxoethyl]-5,6,7,8-tetrahydro-1,6-naphthyridin-2(1H)-one]
O=C(CN1CCc2nc(-c3ccncc3)ncc2C1)N1CCN(C2CCC2)CC1 [Compound 137, 6-[2-(4-cyclobutylpiperazin-1-yl)-2-oxoethyl]-2-pyridin-4-yl-5,6,7,8-tetrahydropyrido[4,3-d]pyrimidine]
O=C(CN1CCc2nc(-c3ccncc3)ncc2C1)N1CCN(C2CCCC2)CC1 [Compound 138, 6-[2-(4-cyclopentylpiperazin-1-yl)-2-oxoethyl]-2-pyridin-4-yl-5,6,7,8-tetrahydropyrido[4,3-d]pyrimidine]
O=C(CN1CCc2nc(N3CCOCC3)ncc2C1)N1CCN(C2CCC2)CC1 [Compound 139, 6-[2-(4-cyclobutylpiperazin-1-yl)-2-oxoethyl]-2-morpholin-4-yl-5,6,7,8-tetrahydropyrido[4,3-d]pyrimidine]
O=C(CN1CCc2nc(N3CCOCC3)ncc2C1)N1CCN(C2CCCC2)CC1 [Compound 140, 6-[2-(4-cyclopentylpiperazin-1-yl)-2-oxoethyl]-2-morpholin-4-yl-5,6,7,8-tetrahydropyrido[4,3-d]pyrimidine]
CC(=O)c1ccc2c(c1)CCN(CC(=O)N1CCN(C(C)C)CC1)C2 [Compound 141, 1-{2-[2-(4-isopropylpiperazin-1-yl)-2-oxoethyl]-1,2,3,4-tetrahydroisoquinolin-6-yl}ethanone]
CC(=O)c1ccc2c(c1)CCN(CC(=O)N1CCN3C(C)CCCC3C1)C2 (stereo not drawn) [Compound 142, 1-{2-[2-(6-methyloctahydro-2H-pyrido[1,2-a]pyrazin-2-yl)-2-oxoethyl]-1,2,3,4-tetrahydroisoquinolin-6-yl}ethanone]
O=C(CN1CCc2nc(-c3cccnc3)ncc2C1)N1CCN(C2CCC2)CC1 [Compound 143, 6-[2-(4-cyclobutylpiperazin-1-yl)-2-oxoethyl]-2-pyridin-3-yl-5,6,7,8-tetrahydropyrido[4,3-d]pyrimidine]
O=C(CN1CCc2nc(-c3ccccn3)ncc2C1)N1CCN(C2CCC2)CC1 [Compound 144, 6-[2-(4-cyclobutylpiperazin-1-yl)-2-oxoethyl]-2-pyridin-2-yl-5,6,7,8-tetrahydropyrido[4,3-d]pyrimidine]
CCC(CC)N1CCN(C(=O)CN2CCc3cc(-c4cncnc4)ccc3C2)CC1 [Compound 145, 2-{2-[4-(1-ethylpropyl)piperazin-1-yl]-2-oxoethyl}-6-pyrimidin-5-yl-1,2,3,4-tetrahydroisoquinoline]
O=C(CN1CCc2cc(Br)ccc2C1)N1CCN2CCCCC2C1 (stereo not drawn) [Compound 148, 2-[(6-bromo-3,4-dihydroisoquinolin-2(1H)-yl)acetyl]octahydro-2H-pyrido[1,2-a]pyrazine]
O=C(CN1CCc2cc(-c3cncnc3)ccc2C1)N1CCN2CCCCC2C1 (stereo not drawn) [Compound 151, 2-[(6-pyrimidin-5-yl-3,4-dihydroisoquinolin-2(1H)-yl)acetyl]octahydro-2H-pyrido[1,2-a]pyrazine]
O=C(CN1CCc2cc(-n3cccn3)ccc2C1)N1CCN2CCCCC2C1 (stereo not drawn) [Compound 153, 2-{[6-(1H-pyrazol-1-yl)-3,4-dihydroisoquinolin-2(1H)-yl]acetyl}octahydro-2H-pyrido[1,2-a]pyrazine]
CC(=O)c1ccc2c(c1)CCN(CC(=O)N1CCN3CCCCC3C1)C2 (stereo not drawn) [Compound 154, 1-{2-[2-(octahydro-2H-pyrido[1,2-a]pyrazin-2-yl)-2-oxoethyl]-1,2,3,4-tetrahydroisoquinolin-6-yl}ethanone]
O=C(CN1CCc2nc(N3CCCCC3)ncc2C1)N1CCN(C2CCC2)CC1 [Compound 155, 6-[2-(4-cyclobutylpiperazin-1-yl)-2-oxoethyl]-2-piperidin-1-yl-5,6,7,8-tetrahydropyrido[4,3-d]pyrimidine]
O=C(CN1CCc2nc(N3CCCCC3)ncc2C1)N1CCN(C2CCCC2)CC1 [Compound 156, 6-[2-(4-cyclopentylpiperazin-1-yl)-2-oxoethyl]-2-piperidin-1-yl-5,6,7,8-tetrahydropyrido[4,3-d]pyrimidine]
O=C(CN1CCc2cc(-n3ccc(C(F)(F)F)n3)ccc2C1)N1CCN(C2CCC2)CC1 [Compound 157, 2-[2-(4-cyclobutylpiperazin-1-yl)-2-oxoethyl]-6-[3-(trifluoromethyl)-1H-pyrazol-1-yl]-1,2,3,4-tetrahydroisoquinoline]
O=C(CN1CCc2cc(-n3ccc(C(F)(F)F)n3)ccc2C1)N1CCN2CCCCC2C1 (stereo not drawn) [Compound 159, 2-({6-[3-(trifluoromethyl)-1H-pyrazol-1-yl]-3,4-dihydroisoquinolin-2(1H)-yl}acetyl)octahydro-2H-pyrido[1,2-a]pyrazine]
CC(C)N1CCN(C(=O)CN2CCc3cc(-c4cccnn4)ccc3C2)CC1 [Compound 164, 2-[2-(4-isopropylpiperazin-1-yl)-2-oxoethyl]-6-pyridazin-3-yl-1,2,3,4-tetrahydroisoquinoline]
CC1CCCC2CN(C(=O)CN3CCc4cc(-c5cccnn5)ccc4C3)CCN12 (stereo not drawn) [Compound 165, 6-methyl-2-[(6-pyridazin-3-yl-3,4-dihydroisoquinolin-2(1H)-yl)acetyl]octahydro-2H-pyrido[1,2-a]pyrazine]
Cc1ccc(-c2ccc3c(c2)CCN(CC(=O)N2CCN(C4CCC4)CC2)C3)nn1 [Compound 166, 2-[2-(4-cyclobutylpiperazin-1-yl)-2-oxoethyl]-6-(6-methylpyridazin-3-yl)-1,2,3,4-tetrahydroisoquinoline]
O=C(CN1CCc2nc(Cl)ccc2C1)N1CCN(C2CCC2)CC1 [Compound 168, 2-chloro-6-[2-(4-cyclobutylpiperazin-1-yl)-2-oxoethyl]-5,6,7,8-tetrahydro-1,6-naphthyridine]
CC1(N2CCN(C(=O)CN3CCc4cc(-c5cncnc5)ccc4C3)CC2)CCC1 [Compound 169, 2-{2-[4-(1-methylcyclobutyl)piperazin-1-yl]-2-oxoethyl}-6-pyrimidin-5-yl-1,2,3,4-tetrahydroisoquinoline]
O=C(CN1CCc2nc(-c3cncnc3)ccc2C1)N1CCN(C2CCC2)CC1 [Compound 171, 6-[2-(4-cyclobutylpiperazin-1-yl)-2-oxoethyl]-2-pyrimidin-5-yl-5,6,7,8-tetrahydro-1,6-naphthyridine]
O=C(CN1CCc2nc(-c3cccnn3)ccc2C1)N1CCN(C2CCC2)CC1 [Compound 172, 6-[2-(4-cyclobutylpiperazin-1-yl)-2-oxoethyl]-2-pyridazin-3-yl-5,6,7,8-tetrahydro-1,6-naphthyridine]
CC(=O)c1ccc2c(n1)CCN(CC(=O)N1CCN(C3CCC3)CC1)C2 [Compound 173, 1-{6-[2-(4-cyclobutylpiperazin-1-yl)-2-oxoethyl]-5,6,7,8-tetrahydro-1,6-naphthyridin-2-yl}ethanone]
O=C(CN1CCc2nc(N3CCOCC3)ccc2C1)N1CCN(C2CCC2)CC1 [Compound 175, 6-[2-(4-cyclobutylpiperazin-1-yl)-2-oxoethyl]-2-morpholin-4-yl-5,6,7,8-tetrahydro-1,6-naphthyridine]
O=C(CN1CCc2nc(N3CCCC3)ccc2C1)N1CCN(C2CCC2)CC1 [Compound 176, 6-[2-(4-cyclobutylpiperazin-1-yl)-2-oxoethyl]-2-pyrrolidin-1-yl-5,6,7,8-tetrahydro-1,6-naphthyridine]
CC1CN(c2ccc3c(n2)CCN(CC(=O)N2CCN(C4CCC4)CC2)C3)CC(C)O1 (stereo not drawn) [Compound 182, 6-[2-(4-cyclobutylpiperazin-1-yl)-2-oxoethyl]-2-(2,6-dimethylmorpholin-4-yl)-5,6,7,8-tetrahydro-1,6-naphthyridine]
O=C(CN1CCc2nc(N3CCC(F)(F)CC3)ccc2C1)N1CCN(C2CCC2)CC1 [Compound 183, 6-[2-(4-cyclobutylpiperazin-1-yl)-2-oxoethyl]-2-(4,4-difluoropiperidin-1-yl)-5,6,7,8-tetrahydro-1,6-naphthyridine]
COCCN(C)c1ccc2c(n1)CCN(CC(=O)N1CCN(C3CCC3)CC1)C2 [Compound 184, 6-[2-(4-cyclobutylpiperazin-1-yl)-2-oxoethyl]-N-(2-methoxyethyl)-N-methyl-5,6,7,8-tetrahydro-1,6-naphthyridin-2-amine]
O=C(CN1CCc2nc(OC3CCCC3)ccc2C1)N1CCN(C2CCC2)CC1 [Compound 185, 6-[2-(4-cyclobutylpiperazin-1-yl)-2-oxoethyl]-2-(cyclopentyloxy)-5,6,7,8-tetrahydro-1,6-naphthyridine]
